Data reported in patent EP0490919B1, “CYTOPROTECTIVE COMPOUNDS BEARING UNSATURATED HYDROCARBON GROUPS HAVING 16 TO 20 CARBON ATOMS” (VIRGINIA COMMONWEALTH UNIVERSITY, priority 1989, dated 1991).
pIC50: −log10 of the molar value. Counter-ions that a name gives are not always drawn.

What was measured:
[1] = tested on: PLA2; assay: Anti-PLA2 activity (Table 6); format: biochemical; details: read-out: IC-50 Anti-PLA2 Activity
[2] = Anti-oxidant activity (Table 6); details: read-out: IC-50 Anti-Oxidant Activity; nd = not detectable at ≤ 500 uM

SMILES	pIC50 [1]	pIC50 [2]
CCCCC/C=C\C/C=C\CCCCCCCC(=O)OC(C(=O)O)C(OC(=O)CCCCCCC/C=C\C/C=C\CCCCC)C(=O)O (centres unmarked) [PX-9]	5.12	4.00
CCCCCCCC/C=C\CCCCCCCC(=O)OC(C(=O)O)C(OC(=O)CCCCCCC/C=C\CCCCCCCC)C(=O)O (centres unmarked) [PX-10]	5.15	4.22
CCCCCCCC/C=C\CCCCCCCC(=O)OCC1(COC(=O)CCCCCCC/C=C\CCCCCCCC)COC(=O)CN1C(=O)CCCCCCC/C=C\CCCCCCCC [PX-11, Tricinyl Trioleate]	5.59	3.84
CCCCCCCC/C=C\CCCCCCCC(=O)OCC(N)(COC(=O)CCCCCCC/C=C\CCCCCCCC)COC(=O)CCCCCCC/C=C\CCCCCCCC [PX-12, P-Toluene Sulfonate Salt of Tris Trioleate]	5.82	4.30
CCCCCCCC/C=C\CCCCCCCC(=O)OCC(COC(=O)CCCCCCC/C=C\CCCCCCCC)(COC(=O)CCCCCCC/C=C\CCCCCCCC)NCCS(=O)(=O)O [PX-13, TES Trioleate]	5.66	4.22
CCCCC/C=C\C/C=C\CCCCCCCC(=O)OCC1(COC(=O)CCCCCCC/C=C\C/C=C\CCCCC)COC(=O)CN1C(=O)CCCCCCC/C=C\C/C=C\CCCCC [PX-15]	4.72	
